Laboratory results: US20210047278A1, “E3 UBIQUITIN LIGASE AGONISTS, PHARMACEUTICAL COMPOSITIONS INCLUDING THE E3 UBIQUITIN LIGASE AGONISTS, RELATED METHODS OF USE” (FRED HUTCHINSON CANCER RESEARCH CENTER, priority 2018, published 2021)
Where two headings read alike, the source gives them in different places.

Assays:
Type in all cases: binding
pCycE alone = experiment: Counterscreen 2 ALPHAscreen with cyclin E phosphopeptide alone (CSRUN2/DCSRUN2); conditions: for CyCEP ACT DCSRUN2 Averaged Max % Response: activation relative to WT-FBW7+pCycE, averaged maximum; for EC50: dose-response, triplicate, 10 point 3-fold dilutional series, read-out: CyCEP ACT DCSRUN2 Final EC50
Method in brief: (§1)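 ALPHAscreen counterscreens, read on ENVISION, omitting either FBW7^ARG or the phosphorylated cyclin E peptide to flag general ALPHAscreen agonists. Compounds tested in triplicate as 10-point 3-fold dilutions up to approximately 87 μM. Activation expressed relative to WT-FBW7+pCycE, with 10% set as positive.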

FBW7^ARG (RLFBW7) alone = target: T1, FBW7^ARG (RLFBW7) alone (Homo sapiens, UniProt Q969H0, R505L); experiment: Counterscreen 1 ALPHAscreen with FBW7^ARG alone (CSRUN1/DCSRUN1); conditions: dose-response counterscreen; for Emax: read-out: RLFBW7 ACT DCSRUN1 Averaged Max % Response
T1 construct: GST (TEV site and flexible linker) (N, cleaved yes); made in house; host or cells: SF9 insect cells (baculovirus)
T1 sequence (Q969H0 64-707 R505L): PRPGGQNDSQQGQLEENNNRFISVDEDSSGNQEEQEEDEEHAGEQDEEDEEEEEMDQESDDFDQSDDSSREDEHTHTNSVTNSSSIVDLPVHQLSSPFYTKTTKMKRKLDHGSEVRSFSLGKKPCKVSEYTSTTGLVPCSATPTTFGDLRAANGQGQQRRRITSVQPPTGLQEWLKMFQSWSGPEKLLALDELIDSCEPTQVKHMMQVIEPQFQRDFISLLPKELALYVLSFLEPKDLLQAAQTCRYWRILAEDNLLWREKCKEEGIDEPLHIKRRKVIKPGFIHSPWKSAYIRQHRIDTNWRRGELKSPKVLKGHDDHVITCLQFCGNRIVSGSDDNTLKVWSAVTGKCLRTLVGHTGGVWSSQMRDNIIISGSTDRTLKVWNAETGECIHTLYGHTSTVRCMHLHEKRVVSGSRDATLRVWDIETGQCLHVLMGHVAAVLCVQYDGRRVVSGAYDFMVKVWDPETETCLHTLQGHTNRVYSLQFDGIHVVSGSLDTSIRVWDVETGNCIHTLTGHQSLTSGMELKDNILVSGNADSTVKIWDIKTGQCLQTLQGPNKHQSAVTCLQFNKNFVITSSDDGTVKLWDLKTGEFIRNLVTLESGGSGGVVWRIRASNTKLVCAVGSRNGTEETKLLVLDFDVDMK
T1 sequence (P63208 2-163 partner): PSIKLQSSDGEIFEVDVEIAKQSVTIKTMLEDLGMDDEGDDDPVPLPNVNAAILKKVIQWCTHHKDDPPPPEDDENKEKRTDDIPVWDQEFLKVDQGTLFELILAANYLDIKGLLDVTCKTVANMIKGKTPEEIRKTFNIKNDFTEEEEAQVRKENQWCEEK
Method in brief: as §1

FBW7^ARG+pCycE = target: T2, FBW7^ARG+pCycE (Homo sapiens, UniProt Q969H0, R505L); experiment: FBW7^ARG-cyclin E agonist ALPHAscreen (primary PRUN, confirmation CRUN1, dose-response DRUN); conditions: for EC50 / Emax: DRUN dose-response; for Emax: relative to WT-FBW7+pCycE, read-out: FBW7 ACT Averaged Max % Response
T2 construct: GST (TEV site and flexible linker) (N, cleaved yes); made in house; host or cells: SF9 insect cells (baculovirus)
T2 sequence (Q969H0 64-707 R505L): as the sequence (Q969H0 64-707 R505L) above
T2 sequence (P63208 2-163 partner): as the sequence (P63208 2-163 partner) above
Method in brief: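 ALPHAscreen agonist assay: His-tagged FBW7 R505L on Ni-chelate acceptor beads (25 nM FBW7, 25 nM biotinylated phospho-cyclin E peptide, 10 µg/ml beads), streptavidin donor beads, ALPHA signal read. Primary and confirmation runs at 26.1 μM; dose-response as 10-point 3-fold series to ~87 μM, in triplicate; activation relative to WT-FBW7+pCycE.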

[1] = read-out: RLFBW7 ACT DCSRUN1 Final EC50
[2] = raw curve fit, read-out: FBW7 ACT EC50 Curve Fit Raw, Molar
[3] = triplicate, 10 point 3-fold dilution, max approx. 87 μM, read-out: FBW7 ACT Final EC50, Molar
[4] = confirmation assay, triplicate, single concentration 26.1 μM, read-out: FBW7 ACT CRUN1 Avg % Response and Stdev
[5] = primary screen, 1536-well, 26.1 μM, FBW7^ARG + pCycE degron peptide, high control wt-FBW7+pCycE, read-out: FBW7 ACT PRUN % Response
[6] = raw curve fit, read-out: RLFBW7 ACT DCSRUN1 EC50 Curve Fit Raw

Row | Emax (FBW7^ARG (RLFBW7) alone) [%] | EC50 (FBW7^ARG (RLFBW7) alone; [1]) [µM] | EC50 (FBW7^ARG+pCycE; [2]) [µM] | Emax (FBW7^ARG+pCycE) [%] | EC50 (FBW7^ARG+pCycE; [3]) [µM] | activation at 26.1 µM (FBW7^ARG+pCycE; [4]) [%] | activation at 26.1 µM (FBW7^ARG+pCycE; [5]) [%] | EC50 (FBW7^ARG (RLFBW7) alone; [6]) [µM] | RLFBW7 ACT DCSRUN1 Hill Slope (FBW7^ARG (RLFBW7) alone) | SMILES | CyCEP ACT DCSRUN2 Averaged Max % Response (pCycE alone) [%] | EC50 (pCycE alone) [µM]
1 | 1.54 | > 34.2 | 0.0034 | 8.34 | > 34.2 | 4.66 ± 1.07 | 1.93 |  |  | CC1=C(C(=O)OCc2ccccc2)C(c2cn(-c3ccccc3)nc2-c2ccc(F)cc2)C(C(=O)OCc2ccccc2)=C(C)N1 [SR-01000425637-1] | 2.59 | > 34.2
2 | 0.91 | > 41.4 | 0.0036 | 7.92 | > 41.4 | 5.16 ± 0.69 | 2.28 | 0.0044 |  | CCSCCOC(=O)C1=C(C)NC2=C(C(=O)CC(c3ccccc3)C2)C1c1ccc(OC)cc1OC (stereo not shown) [SR-01000425645-1] | 2.61 | > 41.4
3 | 1.53 | > 62.2 | 23.8 | 8.75 | > 62.2 | 5.27 ± 1.17 | 2.58 | 0.0056 |  | COc1ccc(COC(=O)C2=C(C)NC3=C(C(=O)CC(C)(C)C3)C2c2ccccc2)cc1 (stereo not shown) [SR-01000427708-1] | 1.77 | > 62.2
4 | 1.48 | > 87.4 | 15.1 | 9.73 | > 87.4 | 11.2 ± 1.65 | 2.51 | 0.0102 |  | COc1ccc(N2C(=O)CC(SCCN)C2=O)cc1 (stereo not shown) [SR-01000428800-1] | 2.47 | > 87.4
5 | 1.65 | > 72.9 | 0.0082 | 8.63 | > 72.9 | 5.32 ± 2.7 | 2.34 | 0.0102 |  | Fc1ccccc1CSc1nnnn1-c1ccccc1F [SR-01000432842-1] | 2.47 | > 72.9
6 | 1.76 | > 45.3 | 9.6 | 15.5 | > 45.3 | 5.81 ± 0.4 | 6.08 | 0.0074 |  | CCOC(=O)C1CCN(C(=O)Nc2ccc(NC(=O)C3CCN(C(=O)OCC)CC3)cc2)CC1 [SR-01000451467-1] | 2.82 | > 45.3
7 | 1.87 | > 43.6 | 0.0054 | 8.52 | > 43.6 | 3.84 ± 1.06 | 1.93 | 0.0052 |  | CCOc1ccc(Br)cc1C1C2=C(CCCC2=O)N(CC(=O)O)C2=C1C(=O)CCC2 [SR-01000476712-1] | 2.30 | > 43.6
8 | 2.77 | > 54 | 19.6 | 16.5 | > 54 | 2.31 ± 0.38 | 2.28 | 0.008 |  | Cc1ccc(-c2nnc(N3CCN(C(=O)c4ccco4)CC3)c3ccccc23)cc1 [SR-01000505133-1] | 1.77 | > 54
9 | 1.89 | > 49.3 | 5.7 | 13.7 | > 49.3 | 4.18 ± 0.65 | 4.07 |  |  | CCCCCCCC(=O)Nc1ccc(C(=O)Nc2ccc(O)c(C(=O)O)c2)cc1 [SR-01000507444-1] | 2.05 | > 49.3
10 | 2.56 | > 56.6 | 7.3 | 10.1 | > 56.6 | 2.1 ± 0.29 | 2.07 | 7.5 |  | COc1ccc(SCC(=O)NNC(=S)Nc2ccccc2)cc1 [SR-01000526835-1] | 2.80 | > 56.6
11 | 3.64 |  |  | 12 |  | 2.81 ± 0.04 | 2.16 |  |  | CCOC(=O)C1=CN(Cc2ccc(OC)cc2)C=C(C(=O)OCC)C1c1ccccc1OCc1ccccc1 [SR-01000587933-1] | 2.45 | > 44.2
12 | -0.247 | > 85 | 0.698 | 7.32 | > 85 | 2.48 ± 0.45 | 1.93 |  |  | Cn1nc(CC(=O)Nc2ccc(F)c(Cl)c2)c2ccccc2c1=O [SR-01000589827-1] | 0.04 | > 85
13 | 83 | 29.9 | 53.6 | 23.5 | > 65.3 | 3.94 ± 9.71 | 8.85 | 28.6 | 6.64 | CSc1ccccc1C(=O)Nc1nc2nc(C)cc(C)c2s1 [SR-01000917298-1] | 0.18 | > 65.3
14 | -0.274 | > 65.3 | 18 | 23.1 | > 65.3 | 5.69 ± 0.17 | 7.62 | 0.0059 |  | COc1ccccc1-c1ccc(N2CCN(C(=O)COc3ccccc3)CC2)nn1 [SR-01000920770-1] | 0.32 | > 65.3
15 | 0.2 | > 65.3 | 31.9 | 17.5 | > 65.3 | 2.33 ± 0.59 | 2.62 | 24.5 |  | O=C(Nc1ccc2c(c1)OCO2)N1CCC(c2nnc(C3CC3)s2)CC1 [SR-01000922885-1] | 0.08 | > 65.3
16 | 0.09 | > 65.3 | 16.5 | 18.3 | > 65.3 | 4.96 ± 0.03 | 3.13 | 22.5 |  | Cc1cccc(NC(=O)N2CCC(c3nnc(C4CC4)s3)CC2)c1 [SR-01000922889-1] | 0.23 | > 65.3
